# Test results as given in ChEMBL document CHEMBL3885881, “DrugMatrix”.
# Species on record: Rattus norvegicus
# Experiment: DrugMatrix - Regimen: Daily Repeat
# Type: toxicity, organism-based, Sprague-Dawley
# Set-up: regimen Daily Repeat, gender Male, age 6-8 weeks
# Details: in vivo, vehicle 100 % SALINE; for SODIUM / TOTAL BILIRUBIN / TOTAL PROTEIN / URIC ACID / ALANINE AMINOTRANSFERASE / ALBUMIN / ALKALINE PHOSPHATASE / ASPARTATE AMINOTRANSFERASE / BLOOD UREA NITROGEN / CARBON DIOXIDE / CHLORIDE / CHOLESTEROL / CREATINE PHOSPHOKINASE / CREATININE / GLUCOSE / LACTATE DEHYDROGENASE / LIPASE / PHOSPHORUS / POTASSIUM: tissue Plasma; for ABSOLUTE BASOPHIL / ABSOLUTE EOSINOPHIL / ABSOLUTE LYMPHOCYTE / ABSOLUTE MONOCYTE / ABSOLUTE SEGMENTED NEUTROPHIL / BASOPHIL / EOSINOPHIL / ERYTHROCYTE COUNT / HEMATOCRIT / HEMOGLOBIN / LEUKOCYTE COUNT / LYMPHOCYTE / MEAN CORPUSCULAR HEMOGLOBIN / MEAN CORPUSCULAR HEMOGLOBIN CONCENTRATION / MEAN CORPUSCULAR VOLUME / MONOCYTE / NEUTROPHIL / NUCLEATED RED BLOOD CELLS / PLATELET COUNT: tissue Blood
# [1] = ip, 40 mg/kg, […], route intraperitoneal, dose level High, time 28 day
# [2] = iv, 41 mg/kg, 72 h, dose level High, time 3 day
# [3] = iv, 41 mg/kg, 120 h, dose level High, time 5 day
# [4] = iv, […], 72 h, dose 4.1 mg/Kg, dose level Low, time 3 day
# [5] = iv, […], 120 h, dose 4.1 mg/Kg, dose level Low, time 5 day
smiles,measurement,setting,value
CCN[C@@H]1C[C@H](N)[C@@H](O[C@H]2OC(CN)=CC[C@H]2N)[C@H](O)[C@H]1O[C@H]1OC[C@](C)(O)[C@H](NC)[C@H]1O [NETILMICIN],SODIUM,[1],152.1 MEQ/L
same,TOTAL BILIRUBIN,[1],0.18 mg/dL
same,TOTAL PROTEIN,[1],6.45 G/DL
same,URIC ACID,[1],1.03 mg/dL
same,ABSOLUTE BASOPHIL,[2],0 CELLS/uL
same,ABSOLUTE EOSINOPHIL,[2],0 CELLS/uL
same,ABSOLUTE LYMPHOCYTE,[2],13244.67 CELLS/uL
same,ABSOLUTE MONOCYTE,[2],92.33 CELLS/uL
same,ABSOLUTE SEGMENTED NEUTROPHIL,[2],896.33 CELLS/uL
same,BASOPHIL,[2],0%
same,EOSINOPHIL,[2],0%
same,ERYTHROCYTE COUNT,[2],5.54 x10E6/uL
same,HEMATOCRIT,[2],34.4%
same,HEMOGLOBIN,[2],13.9 G/DL
same,LEUKOCYTE COUNT,[2],14.23 x10E3/uL
same,LYMPHOCYTE,[2],93%
same,MEAN CORPUSCULAR HEMOGLOBIN,[2],25.07 pg
same,MEAN CORPUSCULAR HEMOGLOBIN CONCENTRATION,[2],40.4 G/DL
same,MEAN CORPUSCULAR VOLUME,[2],62.1 fL
same,MONOCYTE,[2],0.67%
same,NEUTROPHIL,[2],6.33%
same,NUCLEATED RED BLOOD CELLS,[2],0 /100WBC
same,PLATELET COUNT,[2],1289.67 x10E3/uL
same,ALANINE AMINOTRANSFERASE,[2],47 u/L
same,ALBUMIN,[2],4.27 G/DL
same,ALKALINE PHOSPHATASE,[2],408.33 u/L
same,ASPARTATE AMINOTRANSFERASE,[2],78.67 u/L
same,BLOOD UREA NITROGEN,[2],16.33 mg/dL
same,CARBON DIOXIDE,[2],32 mmol/L
same,CHLORIDE,[2],102.67 MEQ/L
same,CHOLESTEROL,[2],64.33 mg/dL
same,CREATINE PHOSPHOKINASE,[2],176 u/L
same,CREATININE,[2],0.16 mg/dL
same,GLUCOSE,[2],156.33 mg/dL
same,LACTATE DEHYDROGENASE,[2],111.67 u/L
same,LIPASE,[2],9.33 u/L
same,PHOSPHORUS,[2],12.53 mg/dL
same,POTASSIUM,[2],7.26 MEQ/L
same,SODIUM,[2],144.53 MEQ/L
same,TOTAL BILIRUBIN,[2],0.23 mg/dL
same,TOTAL PROTEIN,[2],5.97 G/DL
same,URIC ACID,[2],1.77 mg/dL
same,ABSOLUTE BASOPHIL,[3],0 CELLS/uL
same,ABSOLUTE EOSINOPHIL,[3],0 CELLS/uL
same,ABSOLUTE LYMPHOCYTE,[3],14425.67 CELLS/uL
same,ABSOLUTE MONOCYTE,[3],210.67 CELLS/uL
same,ABSOLUTE SEGMENTED NEUTROPHIL,[3],463.67 CELLS/uL
same,BASOPHIL,[3],0%
same,EOSINOPHIL,[3],0%
same,ERYTHROCYTE COUNT,[3],5.76 x10E6/uL
same,HEMATOCRIT,[3],36.3%
same,HEMOGLOBIN,[3],14.47 G/DL
same,LEUKOCYTE COUNT,[3],15.1 x10E3/uL
same,LYMPHOCYTE,[3],95.67%
same,MEAN CORPUSCULAR HEMOGLOBIN,[3],25.1 pg
same,MEAN CORPUSCULAR HEMOGLOBIN CONCENTRATION,[3],39.87 G/DL
same,MEAN CORPUSCULAR VOLUME,[3],62.97 fL
same,MONOCYTE,[3],1.33%
same,NEUTROPHIL,[3],3%
same,NUCLEATED RED BLOOD CELLS,[3],0.33 /100WBC
same,PLATELET COUNT,[3],1375.67 x10E3/uL
same,ALANINE AMINOTRANSFERASE,[3],52 u/L
same,ALBUMIN,[3],4.33 G/DL
same,ALKALINE PHOSPHATASE,[3],313.33 u/L
same,ASPARTATE AMINOTRANSFERASE,[3],87.67 u/L
same,BLOOD UREA NITROGEN,[3],18.33 mg/dL
same,CARBON DIOXIDE,[3],35 mmol/L
same,CHLORIDE,[3],100.33 MEQ/L
same,CHOLESTEROL,[3],60.67 mg/dL
same,CREATINE PHOSPHOKINASE,[3],309.33 u/L
same,CREATININE,[3],0.19 mg/dL
same,GLUCOSE,[3],145.33 mg/dL
same,LACTATE DEHYDROGENASE,[3],281 u/L
same,LIPASE,[3],10.33 u/L
same,PHOSPHORUS,[3],11.93 mg/dL
same,POTASSIUM,[3],7.18 MEQ/L
same,SODIUM,[3],145.03 MEQ/L
same,TOTAL BILIRUBIN,[3],0.17 mg/dL
same,TOTAL PROTEIN,[3],6.23 G/DL
same,URIC ACID,[3],1.8 mg/dL
same,ABSOLUTE BASOPHIL,[4],0 CELLS/uL
same,ABSOLUTE EOSINOPHIL,[4],0 CELLS/uL
same,ABSOLUTE LYMPHOCYTE,[4],4768 CELLS/uL
same,ABSOLUTE MONOCYTE,[4],54 CELLS/uL
same,ABSOLUTE SEGMENTED NEUTROPHIL,[4],578 CELLS/uL
same,BASOPHIL,[4],0%
same,EOSINOPHIL,[4],0%
same,ERYTHROCYTE COUNT,[4],5.02 x10E6/uL
same,HEMATOCRIT,[4],31.53%
same,HEMOGLOBIN,[4],12.37 G/DL
same,LEUKOCYTE COUNT,[4],5.4 x10E3/uL
same,LYMPHOCYTE,[4],88.33%
same,MEAN CORPUSCULAR HEMOGLOBIN,[4],24.67 pg
same,MEAN CORPUSCULAR HEMOGLOBIN CONCENTRATION,[4],39.23 G/DL
same,MEAN CORPUSCULAR VOLUME,[4],62.83 fL
same,MONOCYTE,[4],1%
same,NEUTROPHIL,[4],10.67%
same,NUCLEATED RED BLOOD CELLS,[4],0.33 /100WBC
same,PLATELET COUNT,[4],1171 x10E3/uL
same,ALANINE AMINOTRANSFERASE,[4],52.33 u/L
same,ALBUMIN,[4],4.23 G/DL
same,ALKALINE PHOSPHATASE,[4],370.33 u/L
same,ASPARTATE AMINOTRANSFERASE,[4],91.67 u/L
same,BLOOD UREA NITROGEN,[4],16 mg/dL
same,CARBON DIOXIDE,[4],33.67 mmol/L
same,CHLORIDE,[4],99.33 MEQ/L
same,CHOLESTEROL,[4],62 mg/dL
same,CREATINE PHOSPHOKINASE,[4],447.67 u/L
same,CREATININE,[4],0.17 mg/dL
same,GLUCOSE,[4],154 mg/dL
same,LACTATE DEHYDROGENASE,[4],115.33 u/L
same,LIPASE,[4],9.33 u/L
same,PHOSPHORUS,[4],10.83 mg/dL
same,POTASSIUM,[4],6.02 MEQ/L
same,SODIUM,[4],143.23 MEQ/L
same,TOTAL BILIRUBIN,[4],0.23 mg/dL
same,TOTAL PROTEIN,[4],6.03 G/DL
same,URIC ACID,[4],0.8 mg/dL
same,ABSOLUTE BASOPHIL,[5],0 CELLS/uL
same,ABSOLUTE EOSINOPHIL,[5],0 CELLS/uL
same,ABSOLUTE LYMPHOCYTE,[5],13577.67 CELLS/uL
same,ABSOLUTE MONOCYTE,[5],137 CELLS/uL
same,ABSOLUTE SEGMENTED NEUTROPHIL,[5],1018.67 CELLS/uL
same,BASOPHIL,[5],0%
same,EOSINOPHIL,[5],0%
same,ERYTHROCYTE COUNT,[5],5.81 x10E6/uL
same,HEMATOCRIT,[5],36.13%
same,HEMOGLOBIN,[5],14.33 G/DL
same,LEUKOCYTE COUNT,[5],14.73 x10E3/uL
same,LYMPHOCYTE,[5],92%
same,MEAN CORPUSCULAR HEMOGLOBIN,[5],24.7 pg
same,MEAN CORPUSCULAR HEMOGLOBIN CONCENTRATION,[5],39.7 G/DL
same,MEAN CORPUSCULAR VOLUME,[5],62.17 fL
same,MONOCYTE,[5],1%
same,NEUTROPHIL,[5],7%
same,NUCLEATED RED BLOOD CELLS,[5],0 /100WBC
same,PLATELET COUNT,[5],1276.33 x10E3/uL
same,ALANINE AMINOTRANSFERASE,[5],46.33 u/L
same,ALBUMIN,[5],4.3 G/DL
same,ALKALINE PHOSPHATASE,[5],383.33 u/L
same,ASPARTATE AMINOTRANSFERASE,[5],80.67 u/L
same,BLOOD UREA NITROGEN,[5],16 mg/dL
same,CARBON DIOXIDE,[5],31.67 mmol/L
same,CHLORIDE,[5],101.33 MEQ/L
same,CHOLESTEROL,[5],83.33 mg/dL
same,CREATINE PHOSPHOKINASE,[5],216.67 u/L
same,CREATININE,[5],0.17 mg/dL
same,GLUCOSE,[5],166.33 mg/dL
same,LACTATE DEHYDROGENASE,[5],180 u/L
same,LIPASE,[5],9.33 u/L
same,PHOSPHORUS,[5],13.33 mg/dL
same,POTASSIUM,[5],7.09 MEQ/L
same,SODIUM,[5],145.07 MEQ/L
same,TOTAL BILIRUBIN,[5],0.13 mg/dL
same,TOTAL PROTEIN,[5],6.3 G/DL
same,URIC ACID,[5],1.93 mg/dL
